From ChEMBL document CHEMBL4177603 (Bioorg Med Chem Lett, 2017)
pEC50, pIC50: −log10 of the molar value. The source made the active and inactive calls. No cut-off for these calls is given here.

Assays:
[1] = species on record: Rattus norvegicus; experiment: Displacement of [3H]AMPA from rat brain AMPA receptor at 10 uM after 60 mins by scintillation counting method
[2] = target: T1, Muscarinic acetylcholine receptor M1 (Homo sapiens) (UniProt P11229); experiment: Antagonist activity at human M1 receptor expressed in CHOK1 cells assessed as inhibition of acetylcholine-induced calcium flux at 10 uM by fluorimetric method relative to control; format: functional, cell-based
T1 sequence (whole entry): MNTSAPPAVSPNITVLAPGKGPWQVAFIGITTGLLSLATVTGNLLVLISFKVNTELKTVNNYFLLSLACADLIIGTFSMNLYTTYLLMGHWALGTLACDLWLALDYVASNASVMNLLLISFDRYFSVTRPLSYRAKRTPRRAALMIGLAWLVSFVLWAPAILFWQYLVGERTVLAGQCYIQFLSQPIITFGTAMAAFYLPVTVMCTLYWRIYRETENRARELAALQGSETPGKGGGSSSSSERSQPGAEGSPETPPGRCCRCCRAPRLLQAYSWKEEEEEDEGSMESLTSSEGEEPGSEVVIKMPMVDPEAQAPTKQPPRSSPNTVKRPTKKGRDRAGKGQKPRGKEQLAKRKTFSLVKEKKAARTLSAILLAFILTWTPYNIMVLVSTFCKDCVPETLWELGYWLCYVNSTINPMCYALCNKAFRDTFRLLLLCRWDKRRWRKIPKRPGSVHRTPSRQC

[3] = Intrinsic clearance in human hepatocytes assessed per million cells; format: ADME, cell-based, Hepatocyte; conditions: read-out: CLH
[4] = target: Adenosine receptor A2a (Homo sapiens) (UniProt P29274); experiment: Agonist activity at recombinant human full-length adenosine A2a receptor expressed in HEK293 cells assessed as effect on impedance at 10 uM by cellular dielectric spectroscopic method relative to control; format: functional, cell-based
Sequence of Adenosine receptor A2a (Homo sapiens) (P29274 whole entry): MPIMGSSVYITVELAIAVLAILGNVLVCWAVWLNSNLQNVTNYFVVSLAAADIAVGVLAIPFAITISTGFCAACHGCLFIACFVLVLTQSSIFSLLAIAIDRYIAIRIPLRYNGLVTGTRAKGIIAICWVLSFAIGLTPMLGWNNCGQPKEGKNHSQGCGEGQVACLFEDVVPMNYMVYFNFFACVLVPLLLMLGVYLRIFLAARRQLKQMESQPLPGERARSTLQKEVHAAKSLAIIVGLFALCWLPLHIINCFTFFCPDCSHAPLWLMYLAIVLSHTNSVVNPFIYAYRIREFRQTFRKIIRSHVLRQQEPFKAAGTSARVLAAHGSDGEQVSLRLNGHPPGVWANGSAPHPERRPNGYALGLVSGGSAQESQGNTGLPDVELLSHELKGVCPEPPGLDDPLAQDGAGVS

[5] = target: Glucocorticoid receptor (Homo sapiens) (UniProt P04150); experiment: Displacement of [3H]dexamethasone from human glucocorticoid receptor at 10 uM after 360 mins by scintillation counting method
[6] = target: D(1A) dopamine receptor (Homo sapiens) (UniProt P21728); experiment: Antagonist activity at recombinant human D1 receptor expressed in CHOK1 cells assessed as inhibition of dopamine-induced cAMP accumulation at 10 uM after 30 mins by HTRF assay relative to control; format: functional, cell-based
Sequence of D(1A) dopamine receptor (Homo sapiens) (P21728 whole entry): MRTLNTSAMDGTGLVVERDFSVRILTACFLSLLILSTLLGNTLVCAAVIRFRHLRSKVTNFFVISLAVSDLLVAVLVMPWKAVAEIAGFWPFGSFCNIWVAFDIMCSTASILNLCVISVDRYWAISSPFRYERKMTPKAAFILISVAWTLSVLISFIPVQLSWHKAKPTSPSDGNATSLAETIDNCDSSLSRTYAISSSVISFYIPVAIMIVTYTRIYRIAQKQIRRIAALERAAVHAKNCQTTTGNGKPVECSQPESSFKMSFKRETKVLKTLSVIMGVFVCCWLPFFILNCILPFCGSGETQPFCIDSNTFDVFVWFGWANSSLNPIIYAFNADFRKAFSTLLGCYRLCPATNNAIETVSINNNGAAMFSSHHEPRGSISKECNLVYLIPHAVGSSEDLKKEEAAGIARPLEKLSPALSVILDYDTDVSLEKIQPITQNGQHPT

[7] = Intrinsic clearance in mouse hepatocytes assessed per million cells; format: ADME, cell-based, Hepatocyte; conditions: read-out: CLH
[8] = target: 5-hydroxytryptamine receptor 2A (Homo sapiens) (UniProt P28223); experiment: Agonist activity at human 5-HT2A receptor expressed in HEK293 cells assessed as increase in IP1 accumulation at 10 uM measured after 30 mins by HTRF method relative to control; format: functional, cell-based
Sequence of 5-hydroxytryptamine receptor 2A (Homo sapiens) (P28223 whole entry): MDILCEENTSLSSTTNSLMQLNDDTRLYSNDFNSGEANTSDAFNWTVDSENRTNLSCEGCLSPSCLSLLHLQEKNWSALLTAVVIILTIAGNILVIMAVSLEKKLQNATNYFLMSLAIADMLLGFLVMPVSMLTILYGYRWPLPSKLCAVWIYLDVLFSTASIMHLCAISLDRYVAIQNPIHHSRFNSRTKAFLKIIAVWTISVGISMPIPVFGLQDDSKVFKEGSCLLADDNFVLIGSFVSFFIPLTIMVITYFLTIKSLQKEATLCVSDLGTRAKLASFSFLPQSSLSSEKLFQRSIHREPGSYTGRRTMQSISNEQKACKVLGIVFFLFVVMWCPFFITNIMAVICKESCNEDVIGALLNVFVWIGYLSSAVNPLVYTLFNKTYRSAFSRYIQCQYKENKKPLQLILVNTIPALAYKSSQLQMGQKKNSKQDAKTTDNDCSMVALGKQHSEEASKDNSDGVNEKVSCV

[9] = target: Kappa-type opioid receptor (Homo sapiens) (UniProt P41145); experiment: Agonist activity at human KOR assessed as increase in calcium flux at 10 uM by fluorimetric method relative to control; format: functional
[10] = target: 5-hydroxytryptamine receptor 1B (Homo sapiens, UniProt P28222); experiment: Agonist activity at human 5-HT1B receptor expressed in HeLa cells assessed as increase in cAMP accumulation measured after 20 mins by HTRF method; format: functional, cell-based
Sequence of 5-hydroxytryptamine receptor 1B (P28222 whole entry): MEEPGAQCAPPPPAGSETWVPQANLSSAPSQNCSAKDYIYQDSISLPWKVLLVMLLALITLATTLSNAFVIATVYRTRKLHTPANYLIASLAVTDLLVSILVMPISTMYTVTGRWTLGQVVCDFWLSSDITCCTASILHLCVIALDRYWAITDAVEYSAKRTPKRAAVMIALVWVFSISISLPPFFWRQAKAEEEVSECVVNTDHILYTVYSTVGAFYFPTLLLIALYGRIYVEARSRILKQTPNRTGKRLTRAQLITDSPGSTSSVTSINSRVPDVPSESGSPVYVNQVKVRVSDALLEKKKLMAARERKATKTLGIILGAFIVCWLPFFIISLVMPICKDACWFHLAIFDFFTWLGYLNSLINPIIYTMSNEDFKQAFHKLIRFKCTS

[11] = target: High affinity choline transporter 1 (Homo sapiens) (UniProt Q9GZV3); experiment: Displacement of [3H]hemicholinium-3 from recombinant human choline transporter at 10 uM after 60 mins by scintillation counting method
[12] = target: Histamine H3 receptor (Homo sapiens) (UniProt Q9Y5N1); experiment: Agonist activity at recombinant human H3 receptor expressed in CHOK1 cells assessed as increase in cAMP accumulation at 10 uM measured after 10 mins by HTRF assay relative to control; format: functional, cell-based
[13] = Intrinsic clearance in human liver microsomes; format: ADME, microsome; conditions: read-out: CLH
[14] = Solubility of the compound in aqueous buffer at pH 3.2; format: physicochemical
[15] = tested on: Mus musculus; experiment: Analgesic activity in mouse assessed as inhibition of formalin-induced pain at 0.28 to 5.4 mg/kg, iv pretreated for 90 mins followed by formalin addition measured up to 40 mins; format: functional, organism-based
[16] = target: Cytochrome P450 2D6 (Homo sapiens, UniProt P10635); experiment: Inhibition of CYP2D6 (unknown origin); format: ADME
[17] = Solubility of the compound in aqueous buffer at pH 7.1; format: physicochemical
[18] = target: Angiotensin-converting enzyme (Homo sapiens) (UniProt P12821); experiment: Inhibition of ACE (unknown origin) at 10 uM by radioligand binding assay relative to control
Sequence of Angiotensin-converting enzyme (Homo sapiens) (P12821 whole entry): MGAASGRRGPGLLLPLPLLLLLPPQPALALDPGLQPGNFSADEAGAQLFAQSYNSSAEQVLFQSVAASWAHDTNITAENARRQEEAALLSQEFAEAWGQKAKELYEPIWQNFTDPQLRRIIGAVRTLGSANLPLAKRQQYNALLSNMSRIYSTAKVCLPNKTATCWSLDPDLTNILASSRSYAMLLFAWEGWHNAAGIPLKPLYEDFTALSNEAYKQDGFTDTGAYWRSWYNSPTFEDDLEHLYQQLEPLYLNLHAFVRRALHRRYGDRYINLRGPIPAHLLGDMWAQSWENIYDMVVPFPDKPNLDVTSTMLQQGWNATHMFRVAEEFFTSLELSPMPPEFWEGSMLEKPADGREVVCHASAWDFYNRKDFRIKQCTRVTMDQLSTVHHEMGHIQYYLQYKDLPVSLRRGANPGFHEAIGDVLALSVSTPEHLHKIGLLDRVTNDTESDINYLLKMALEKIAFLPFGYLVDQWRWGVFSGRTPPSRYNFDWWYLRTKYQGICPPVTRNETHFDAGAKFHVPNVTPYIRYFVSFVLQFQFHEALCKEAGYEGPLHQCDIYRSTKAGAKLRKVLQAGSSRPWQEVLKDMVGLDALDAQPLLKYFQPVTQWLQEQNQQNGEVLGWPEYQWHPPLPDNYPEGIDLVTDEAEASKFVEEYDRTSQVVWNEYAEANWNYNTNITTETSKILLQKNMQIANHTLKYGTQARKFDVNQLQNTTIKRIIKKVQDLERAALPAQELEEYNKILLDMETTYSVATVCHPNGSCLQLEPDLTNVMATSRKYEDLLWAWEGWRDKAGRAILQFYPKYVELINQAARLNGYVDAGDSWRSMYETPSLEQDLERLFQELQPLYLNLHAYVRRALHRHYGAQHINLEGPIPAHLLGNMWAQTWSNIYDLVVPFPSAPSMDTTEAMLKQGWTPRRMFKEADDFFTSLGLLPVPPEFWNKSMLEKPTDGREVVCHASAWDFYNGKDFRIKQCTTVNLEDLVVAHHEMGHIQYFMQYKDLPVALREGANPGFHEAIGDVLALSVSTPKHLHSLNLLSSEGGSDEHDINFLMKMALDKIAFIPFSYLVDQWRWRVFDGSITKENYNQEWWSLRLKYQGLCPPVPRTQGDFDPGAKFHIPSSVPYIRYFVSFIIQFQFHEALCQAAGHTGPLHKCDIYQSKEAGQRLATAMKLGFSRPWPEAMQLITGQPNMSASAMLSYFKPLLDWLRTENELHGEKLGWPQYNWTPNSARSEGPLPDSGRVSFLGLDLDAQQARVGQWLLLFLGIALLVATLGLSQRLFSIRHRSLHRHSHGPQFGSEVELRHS

[19] = Solubility of the compound in aqueous buffer at pH 4.2; format: physicochemical
[20] = target: 5-hydroxytryptamine receptor 2B (Homo sapiens) (UniProt P41595); experiment: Agonist activity at human 5-HT2B receptor expressed in CHOK1 cells assessed as increase in IP1 accumulation at 10 uM measured after 30 mins by HTRF method relative to control; format: functional, cell-based
[21] = target: Cytochrome P450 1A2 (Homo sapiens, UniProt P05177); experiment: Inhibition of CYP1A2 (unknown origin); format: ADME
Sequence of Cytochrome P450 1A2 (P05177 whole entry): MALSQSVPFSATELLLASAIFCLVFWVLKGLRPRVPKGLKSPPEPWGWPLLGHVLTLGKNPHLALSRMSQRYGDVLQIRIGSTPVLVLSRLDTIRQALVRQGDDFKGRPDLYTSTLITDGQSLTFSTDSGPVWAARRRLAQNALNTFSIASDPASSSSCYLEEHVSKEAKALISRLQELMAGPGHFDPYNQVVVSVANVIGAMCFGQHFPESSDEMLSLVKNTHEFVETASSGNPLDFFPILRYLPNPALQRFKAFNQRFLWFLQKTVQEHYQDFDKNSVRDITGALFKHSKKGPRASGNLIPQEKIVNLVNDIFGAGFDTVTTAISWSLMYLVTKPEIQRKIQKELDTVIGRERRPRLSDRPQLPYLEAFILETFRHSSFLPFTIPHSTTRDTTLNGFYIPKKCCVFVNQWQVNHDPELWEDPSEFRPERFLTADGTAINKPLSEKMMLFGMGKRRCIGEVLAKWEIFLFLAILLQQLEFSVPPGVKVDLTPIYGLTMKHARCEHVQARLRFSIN

[22] = target: D(1A) dopamine receptor (Homo sapiens) (UniProt P21728); experiment: Agonist activity at recombinant human D1 receptor expressed in CHOK1 cells assessed as increase in cAMP accumulation at 10 uM after 30 mins by HTRF assay relative to control; format: functional, cell-based
[23] = species on record: Rattus norvegicus; experiment: Displacement of [3H]D888 from L-type calcium channel verapamil binding site in rat brain at 10 uM measured after 120 mins by scintillation counting method
[24] = target: Type-1 angiotensin II receptor (Homo sapiens) (UniProt P30556); experiment: Antagonist activity at recombinant human AT1 receptor expressed in HEK293 cells assessed as inhibition of angiotensin2-induced calcium flux at 10 uM by spectrophotometric method relative to control; format: functional, cell-based
Sequence of Type-1 angiotensin II receptor (Homo sapiens) (P30556 whole entry): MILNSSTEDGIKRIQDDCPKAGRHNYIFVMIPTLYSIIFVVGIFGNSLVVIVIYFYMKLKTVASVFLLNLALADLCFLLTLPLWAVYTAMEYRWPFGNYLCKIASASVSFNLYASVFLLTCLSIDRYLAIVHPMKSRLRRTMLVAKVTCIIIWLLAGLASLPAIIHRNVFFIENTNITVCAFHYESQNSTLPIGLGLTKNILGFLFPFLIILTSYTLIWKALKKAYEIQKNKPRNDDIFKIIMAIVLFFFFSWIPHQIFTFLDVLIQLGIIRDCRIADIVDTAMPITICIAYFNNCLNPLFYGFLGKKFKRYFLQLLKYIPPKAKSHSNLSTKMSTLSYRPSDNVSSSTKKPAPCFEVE

[25] = target: Sodium-dependent noradrenaline transporter (Homo sapiens, UniProt P23975); experiment: Displacement of [3H]nisoxetine from recombinant human norepinephrine transporter at 10 uM after 120 min by scintillation counting method
[26] = target: Cannabinoid receptor 1 (Homo sapiens) (UniProt P21554); experiment: Displacement of [3H]CP 55940 from recombinant human CB1 receptor at 10 uM after 120 mins by scintillation counting method
Sequence of Cannabinoid receptor 1 (Homo sapiens) (P21554 whole entry): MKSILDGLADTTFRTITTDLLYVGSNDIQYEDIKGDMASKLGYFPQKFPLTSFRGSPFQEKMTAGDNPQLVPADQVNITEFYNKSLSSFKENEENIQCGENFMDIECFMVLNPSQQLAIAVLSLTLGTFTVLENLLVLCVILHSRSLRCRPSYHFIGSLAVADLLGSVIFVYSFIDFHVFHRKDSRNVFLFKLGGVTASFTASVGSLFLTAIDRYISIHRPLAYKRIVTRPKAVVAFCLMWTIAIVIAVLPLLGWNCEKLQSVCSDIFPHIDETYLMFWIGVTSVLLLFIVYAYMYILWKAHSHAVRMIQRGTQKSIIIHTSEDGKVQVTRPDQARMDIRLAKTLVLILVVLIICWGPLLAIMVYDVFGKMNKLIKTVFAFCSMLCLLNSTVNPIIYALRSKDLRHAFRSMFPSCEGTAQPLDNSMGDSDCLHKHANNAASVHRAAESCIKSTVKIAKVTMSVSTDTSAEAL

[27] = target: Cannabinoid receptor 1 (Homo sapiens) (UniProt P21554); experiment: Agonist activity at recombinant human CB1 receptor expressed in CHOK1 cells assessed as increase in cAMP accumulation at 10 uM after 20 mins by HTRF assay relative to control; format: functional, cell-based
[28] = Inhibition of dog Nav1.7 expressed in HEK cells by automated patchXpress electrophysiology method; format: cell-based; conditions: HEK293
[29] = Intrinsic clearance in dog hepatocytes assessed per million cells; format: ADME, cell-based, Canis lupus familiaris, Hepatocyte; conditions: read-out: CLH
[30] = target: Mu-type opioid receptor (Homo sapiens) (UniProt P35372); experiment: Agonist activity at recombinant human MOR expressed in CHOK1 cells assessed as increase in cAMP accumulation at 10 uM measured after 10 mins by HTRF assay relative to control; format: functional, cell-based
Sequence of Mu-type opioid receptor (Homo sapiens) (P35372 whole entry, the tested form may be a part): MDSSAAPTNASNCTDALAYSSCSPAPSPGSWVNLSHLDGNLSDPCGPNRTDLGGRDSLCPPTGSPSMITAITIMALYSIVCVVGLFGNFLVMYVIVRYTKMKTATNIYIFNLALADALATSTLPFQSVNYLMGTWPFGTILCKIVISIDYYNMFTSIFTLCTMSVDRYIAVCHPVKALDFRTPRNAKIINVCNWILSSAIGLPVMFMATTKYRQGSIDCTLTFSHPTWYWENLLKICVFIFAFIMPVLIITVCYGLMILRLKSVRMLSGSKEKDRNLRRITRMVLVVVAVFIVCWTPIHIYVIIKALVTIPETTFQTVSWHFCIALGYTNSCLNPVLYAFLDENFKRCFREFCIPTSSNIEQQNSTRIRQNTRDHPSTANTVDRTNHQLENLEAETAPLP

[31] = Volume of distribution at steady state in rat at 0.3 mg/kg, iv via infusion for 1 hr; format: ADME, organism-based; conditions: in vivo, read-out: Vdss
[32] = Lipophilicity, log D of the compound at pH 7.4; format: physicochemical; conditions: buffer
[33] = Intrinsic clearance in rat liver microsomes; format: ADME, microsome; conditions: read-out: CLH

N#Cc1cc(S(=O)(=O)Nc2ncns2)ccc1Oc1ccc(-c2cccc(C(F)(F)F)c2)cc1-c1ccnc(CNCCC2CCNCC2)c1
inhibition [1]: -1% | inhibition [2]: 7% | hepatocyte CLint [3]: 6.5 µL/min/1e6 cells | Activity [4]: -2% | inhibition [5]: 36.1% | inhibition [6]: 30% | hepatocyte CLint [7]: < 3 µL/min/1e6 cells | Activity [8]: -1% | Activity [9]: 15% | pEC50 [10]: < 5.00 | inhibition [11]: 99% | Activity [12]: 7% | microsomal CLint [13]: < 8 µL/min/mg | solubility [14]: > 906 µg/mL | inhibition [15]: inactive | pIC50 [16]: 5.05 | solubility [17]: > 2570 µg/mL | inhibition [18]: -8% | solubility [19]: > 1170 µg/mL | Activity [20]: 1% | pIC50 [21]: < 4.52 | Activity [22]: 6% | inhibition [23]: 35% | inhibition [24]: -2% | inhibition [25]: 80% | inhibition [26]: 21% | Activity [27]: -7% | pIC50 [28]: > 10.52 | hepatocyte CLint [29]: < 6 µL/min/1e6 cells | Activity [30]: 21% | Vd [31]: 0.59 L/kg | logD [32]: 2.37 to 2.4 | microsomal CLint [33]: < 14.1 µL/min/mg
